EC50 and IC50 data for six compounds are collected here from patent publication US8012941B2, “Carba-nucleoside analogs for antiviral treatment” (Gilead Sciences, Inc., priority 2008, dated 2011).

In test [1] the test system is HCV replicon cells. Briefly: HCV EC50 determination: replicon cells, luciferase readout. The format is cell-based. Conditions: Hepatitis C virus, 72 h. The method, then:
Replicon cells were seeded in 96-well plates at a density of 8×10^3 cells per well in 100 μL of culture medium, excluding Geneticin. Compound was serially diluted in 100% DMSO and then added to the cells at a 1:200 dilution, achieving a final concentration of 0.5% DMSO and a total volume of 200 μL. Plates were incubated at 37° C. for 3 days, after which culture medium was removed and cells were lysed in lysis buffer provided by Promega's luciferase assay system. Following the manufacturer's instruction, 100 μL of luciferase substrate was added to the lysed cells and luciferase activity was measured in a TopCount luminometer.

The target of test [2] is T1, HCV Δ21 NS5b polymerase (Hepatitis C virus genotype 1b, UniProt Q9WMX2).
T1 construct: 75 nM HCV Δ21 NS5b polymerase
The test is described as follows: HCV IC50 determination: NS5b polymerase assay. Conditions: triphosphates of the listed examples, 35° C., 90 min. In kind it is biochemical. The procedure:
Assay Protocol: NS5b polymerase assay (40 μL) was assembled by adding 28 μL polymerase mixture (final concentration: 50 mM Tris-HCl at pH 7.5, 10 mM KCL, 5 mM MgCl2, 1 mM DTT, 10 mM EDTA, 4 ng/μL of RNA template, and 75 nM HCV Δ21 NS5b polymerase) to assay plates followed by 4 μL of compound dilution. The polymerase and compound were pre-incubated at 35° C. for 10 minute before the addition of 8 μL of nucleotide substrate mixture (33P-α-labeled competing nucleotide at KM and 0.5 mM of the remaining three nucleotides). The assay plates were covered and incubated at 35° C. for 90 min. Reactions were then filtered through 96-well DEAE-81 filter plates via vacuum. The filter plates were then washed under vacuum with multiple volumes of 0.125 M NaHPO4, water, and ethanol to remove unincorporated label. Plates were then counted on TopCount to assess the level of product synthesis over background controls. The IC50 value was determined using Prism fitting program.

[3] abbreviates: replicon cells, 3 days at 37° C., luciferase activity, read-out: EC50.

pEC50, pIC50: −log10 of the molar value. Read-outs that look alike come from different tables or passages of the source.

For `C[C@@]1(O)[C@H](O)[C@@H](CO)O[C@H]1c1cnc2c(N)ncnn12` [Compound 1, (2S,3R,4R,5 R)-2-(4-aminoimidazo[1,2-f][1,2,4]triazin-7-yl)-5-(hydroxymethyl)-3-methyl-tetrahydrofuran-3,4-diol], the pEC50 in test [1] (setting [3]) was above 5.00.
Take `C[C@@]1(O)[C@H](O)[C@@H](CO)O[C@H]1c1cnc2c(N)nc(N)nn12` [Compound 3]: the pEC50 in test [1] (setting [3]) was above 3.60.
On the same count and under the same terms, to `CNc1ncnn2c([C@@H]3O[C@H](CO)[C@@H](O)[C@@]3(C)O)cnc12` [Compound 17] belongs above 5.00.
In turn, `CNc1ncnn2c([C@@H]3O[C@H](COP(=O)(OCCSC(=O)C(C)(C)C)OCCSC(=O)C(C)(C)C)[C@@H](O)[C@@]3(C)O)cnc12` [Compound 18] gave a pEC50 in test [1] above 5.00.
On the same count and under the same terms, the same measure for `CC(C)OC(=O)[C@H](C)NP(=O)(OC[C@H]1O[C@@H](c2nnc3c(=O)[nH]c(N)nn23)[C@](C)(O)[C@@H]1O)Oc1ccc(Cl)cc1` (stereo partly drawn) [Compound 9]: above 3.60.
As for “(2S,3R,4R,5 R)-2-(4-aminoimidazo[1,2-f][1,2,4]triazin-7-yl)-5-(hydroxymethyl)-3-methyl-tetrahydrofuran-3,4-diol [Compound 1]”, in test [2], the pIC50 was above 5.00.
